Columns and labels:
[1] = tested on: murine primary osteoblasts; test: cAMP production in murine primary osteoblasts; assay type: cell-based, mouse; settings: added with isoproterenol or norepinephrine
Description: (§1) Primary osteoblast cultures were established as previously described (see, e.g., Ducy et al., 2000, Cell 100: 197-207) and maintained in αMEM/0.1 mg/ml ascorbic acid supplemented with 10% FBS. SaOS-2 were grown in MEM/10% FBS. For cAMP assay confluent cultures were incubated with serum free medium containing 100 μM IBMX (3-isobutyl-1-methylxanthine, Sigma) for 8 minutes before PBS, PTH(1-34) (Bachem), isoproterenol, norepinephrine, phenylephrine (Sigma) or propranolol were added for 5 min. Intracellular cAMP concentration was measured by immunoassay (R&D Systems). For gene expression analyses, primary osteoblasts were treated for 72 hours with appropriate drugs in 0.1% FBS. Hormone serum levels were quantified using immunoassays kits from Peninsula Laboratories (Insulin) or Alpco Diagnostics (leptin). Deoxypyridinoline cross-links and Creatinine were measured in morning urines using the Quidel kits. a1(I) leptin bioactivity was verified by cotransfection of 293 cells expressing ObRb with a STAT3-responsive-luc reporter construct, pSVβgal plasmid and a1(I) leptin expression vector or mock. Twenty-four hours later luciferase and β-galactosidase activities were measured. Data represents ratios of luciferase/β-galactosidase activities, and values are mean of 6 independent transfection experiments.
For a sympathetic regulation of bone formation to exist several requirements have to be fulfilled. The first one is that functional adrenergic receptors are present on osteoblasts. […] Immunohistochemical analysis of long bones from transgenic mice expressing LacZ under the control of the osteoblast-specific fragment of the a1(I) collagen promoter verified the presence of β2-adrenergic receptors on osteoblasts (FIG. 13B). No other adrenergic receptor subtype could be detected. […] Electron micrographs confirmed the presence of unmyelinated peripheral nerve axons coursing through the marrow adjacent to bone trabeculae and to osteoblasts (FIG. 13E). β-adrenergic receptors are G-coupled receptors that signal through the cAMP pathway (see, e.g., Benovic et al., 1988, Annu Rev Cell Biol 4:405-428). Thus, to assess the biologic relevance of the presence of β2-adrenergic receptors on osteoblasts, these cells were treated with isoproterenol, a β-adrenergic agonist, alone or in the presence of propranolol, a β-adrenergic receptor antagonist; with norepinephrine, the natural ligand of β-adrenergic receptors; with phenylephrine, an α-adrenergic agonist or with vehicle and measured cAMP production. As a positive control, parathyroid hormone (PTH) that binds to another G-coupled receptor present in osteoblasts was used (Gardella & Juppner, 2001, Trends Endocrinol Metab 12:210-217.). […] These effects were abolished by propranolol treatment. […]

[2] = tested on: human SaOS-2 osteoblastic cells; test: cAMP production in human SaOS-2 osteoblastic cells; assay type: cell-based; settings: SaOS-2, added to β-adrenergic receptor agonists
Description: as §1
For a sympathetic regulation of bone formation to exist several requirements have to be fulfilled. The first one is that functional adrenergic receptors are present on osteoblasts. […] No other adrenergic receptor subtype could be detected. […] Thus, to assess the biologic relevance of the presence of β2-adrenergic receptors on osteoblasts, these cells were treated with isoproterenol, a β-adrenergic agonist, alone or in the presence of propranolol, a β-adrenergic receptor antagonist; with norepinephrine, the natural ligand of β-adrenergic receptors; with phenylephrine, an α-adrenergic agonist or with vehicle and measured cAMP production. […]

primary osteoblasts = test: Gene expression and apoptosis in primary osteoblasts; assay type: cell-based, mouse; settings: primary osteoblasts, isoproterenol plus propranolol
Description: as §1
To elucidate the bases of the antiosteogenic effect of isoproterenol in vivo, osteoblast proliferation, gene expression and apoptosis were studied.

wt mice = test: Propranolol treatment of wt mice; assay type: in vivo, mouse
Description: (§2) Wildtype (C57BL/6J) and mutant (C57BL/6J A^y/a, C57BL/6J ob/ob) mice were obtained from the Jackson laboratory and adrenal medullectomized mice from Harlan Tecklad laboratory. Dbh−/− mice were rescued as previously described (Thomas et al., 1998, Neurochem 70:2468-2476). Isoproterenol (Sigma) was injected intraperitoneally (ip) once daily for 6 weeks at 30 mg/kg (wt) or 3 mg/kg (ob/ob). Propranolol (Sigma) was added to the drinking water at a concentration of 0.5 g/l. For ICV infusion, a 28-gauge cannula (Brain infusion kit II, Alza) was implanted into the third ventricle as previously described infusing human leptin (Sigma) at 8 ng/hr or MT-II at 125 ng/hr (Phoenix Pharmaceuticals) for 28 days (see, e.g., Ducy et al., 2000, Cell 100: 197-207). The cannula was connected to an osmotic pump (Alza) placed in the dorsal subcutaneous space of the animal. For parabiosis longitudinal incisions were made in the skin and in the peritoneal cavity along one side on each mouse. Edges of the incisions were connected by suture to induce coelioanastomosis. Cross-circulation was quantified by injecting 1 ml/kg 0.25% Evans blue into the tail vein of one mouse of the parabiosed pair. After 30 min. blood was collected from both mice by retroorbital bleeding and the blood exchange rate was calculated according to standard techniques (see, e.g., Harris & Martin, 1984, Am J Physiol 247:R380-386). […] Two weeks after parabiosis a pump delivering leptin ICV in one animal of each pair was implanted. For GTG lesioning, 4-week-old C57BL/6J mice were given a single ip injection of either PBS or GTG (0.5 mg/g). For MSG lesioning, 2 day-old C57BL/6J pups were injected daily subcutaneously with either PBS or MSG (2 mg/g) for 10 days.
Histological analyses were performed on undecalcified sections stained by von Kossa and counterstained by von Gieson (see, e.g., Ducy et al., 2000, Cell 100:197-207). Static and dynamic histomorphometric analyses were performed according to standard protocols (see, e.g., Parfitt et al., 1987, J Bone Miner Res 6:595-610) using the Osteomeasure Analysis System (Osteometrics, Atlanta). Six to 12 animals were analyzed for each group. Statistical significance was assessed by Student's t test.
as §1
The most important biomedical requirement for regulation of bone formation by the SNS is that β-adrenergic antagonists (β blockers) should increase bone mass by increasing bone formation. To address this point, wt mice were treated for 5 weeks with propranolol (0.4 mg/day). […] In some propranolol-treated mice the bone volume matched what is observed in ob/ob mice. […]

ovariectomized wt mice = test: Propranolol treatment of ovariectomized wt mice; assay type: in vivo, mouse
Description: as §2
To test if it was the case ovariectomy in 6 week-old wt mice was performed and the mice were treated for 7 weeks with propranolol or vehicle. Estrogen depletion by ovariectomy decreased bone mass in vehicle-treated mice. […] This latter result underscores the physiologic and therapeutic importance of the sympathetic regulation of bone formation.

rats = rats treated with propranolol; cited from earlier work

hyperinsulinism or other hormonal modifications (wt mice; wt mice): did not cause
SMILES: CC(C)NCC(O)COc1cccc2ccccc12 (stereo not shown) [propranolol]
effect on agonist-induced cAMP production [1]: abolished | effect on agonist-induced cAMP production [2]: inhibited | inhibitory effect of isoproterenol on gene expression (primary osteoblasts): reversed | Bone Volume (wt mice; Wild-type + propranolol): High | body weight and fat pad weight (wt mice; wt mice, 5 weeks, 0.4 mg/day): remained normal | bone formation rate (wt mice; wt mice, 5 weeks, 0.4 mg/day): increase | number of osteoblasts (wt mice; wt mice, 5 weeks, 0.4 mg/day): increase | bone mass in vertebrae and long bones (wt mice; wt mice, 5 weeks, 0.4 mg/day (drinking water 0.5 g/l)): significant increase | bone formation rate vs control ovariectomized mice (ovariectomized wt mice; ovariectomized mice, 7 weeks): striking increase | osteoblast number vs control ovariectomized mice (ovariectomized wt mice; ovariectomized mice, 7 weeks): striking increase | bone mass (ovariectomized wt mice; ovariectomy at 6 weeks of age, treated for 7 weeks): normal | femoral metaphyseal mineral apposition rates (rats): Increased
